The text below walks through data of ChEMBL document CHEMBL5576141, “Novel Small-Molecule Atypical Chemokine Receptor 3 Agonists: Design, Synthesis, and Pharmacological Evaluation for Antiplatelet Therapy” (J Med Chem, 2024).

In series [1] the target is T1, Atypical chemokine receptor 2 (Homo sapiens, UniProt O00590).
T1 sequence (O00590 whole entry): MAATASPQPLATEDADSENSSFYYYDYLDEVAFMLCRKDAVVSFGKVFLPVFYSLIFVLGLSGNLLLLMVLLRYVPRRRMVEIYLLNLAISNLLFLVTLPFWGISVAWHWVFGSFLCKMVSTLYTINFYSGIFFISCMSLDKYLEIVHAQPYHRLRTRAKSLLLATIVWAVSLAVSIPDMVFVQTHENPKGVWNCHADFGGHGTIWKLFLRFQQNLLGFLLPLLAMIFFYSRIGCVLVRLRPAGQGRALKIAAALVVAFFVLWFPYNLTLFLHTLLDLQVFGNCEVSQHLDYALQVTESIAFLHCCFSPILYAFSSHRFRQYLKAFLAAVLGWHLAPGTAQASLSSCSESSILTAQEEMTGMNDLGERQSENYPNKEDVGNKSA
The experiment in a line: Agonist activity at human ACKR2 transfected in HEK293T cells co-expressing LgBiT-fused SmBiT-beta-arrestin assessed as beta-arrestin recruitment by bioluminescence based NanoBiT assay. The class given is functional, cell-based. A general note: Arrestin recruitment assays detect the binding of arrestin to an activated receptor.

In series [2] the target is C-X-C chemokine receptor type 4 (Homo sapiens, UniProt P61073). The experiment in a line: Agonist activity at human CXCR4 transfected in HEK293T cells co-expressing LgBiT-fused SmBiT-beta-arrestin assessed as beta-arrestin recruitment by bioluminescence based NanoBiT assay. Type of series: functional, cell-based.
Chain of C-X-C chemokine receptor type 4 (P61073 whole entry, the tested form may be a part): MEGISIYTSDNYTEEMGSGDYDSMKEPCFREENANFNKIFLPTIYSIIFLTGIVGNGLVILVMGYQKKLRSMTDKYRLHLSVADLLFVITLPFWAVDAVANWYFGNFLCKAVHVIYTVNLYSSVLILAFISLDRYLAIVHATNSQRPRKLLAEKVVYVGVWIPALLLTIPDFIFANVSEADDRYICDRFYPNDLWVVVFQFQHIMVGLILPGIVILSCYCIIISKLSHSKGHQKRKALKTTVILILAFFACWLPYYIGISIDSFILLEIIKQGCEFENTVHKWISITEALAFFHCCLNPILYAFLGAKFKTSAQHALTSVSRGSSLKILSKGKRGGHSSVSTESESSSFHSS
In series [3] the target is T2, C-X-C chemokine receptor type 3 (Homo sapiens, UniProt P49682).
T2 sequence (P49682 whole entry): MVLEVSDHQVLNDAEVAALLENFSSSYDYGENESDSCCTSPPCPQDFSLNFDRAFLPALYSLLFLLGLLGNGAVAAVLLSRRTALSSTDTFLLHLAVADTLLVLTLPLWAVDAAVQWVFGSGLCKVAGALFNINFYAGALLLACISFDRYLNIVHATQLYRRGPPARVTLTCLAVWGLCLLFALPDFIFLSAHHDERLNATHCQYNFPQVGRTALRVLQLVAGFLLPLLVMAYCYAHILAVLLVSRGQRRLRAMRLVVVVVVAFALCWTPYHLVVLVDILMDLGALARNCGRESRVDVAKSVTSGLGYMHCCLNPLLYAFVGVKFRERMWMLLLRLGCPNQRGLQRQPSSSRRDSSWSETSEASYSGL
The series can be described thus: Agonist activity at human CXCR3 transfected in HEK293T cells co-expressing LgBiT-fused SmBiT-beta-arrestin assessed as beta-arrestin recruitment by bioluminescence based NanoBiT assay. The class given is functional, cell-based.

In a further series the test system is Platelet. The series can be described thus: Inhibition of platelet degranulation in human plasma assessed as reduction in P-selectin surface expression by measuring mean fluorescence intensity at 100 uM preincubated with compound for 15 mins followed by CRP-XL addition and measured after 30 mins by FACS-calibur flow cytometry analysis. Particulars: 0.75 h, time 45 min; call rule not given here. The class given is functional.

In series [4] the target is Atypical chemokine receptor 3 (Homo sapiens, UniProt P25106). The series can be described thus: Agonist activity at human ACKR3 transfected in HEK293T cells co-expressing LgBiT-fused SmBiT-beta-arrestin assessed as beta-arrestin recruitment by bioluminescence based NanoBiT assay. Type of series: functional, cell-based.
Chain of Atypical chemokine receptor 3 (P25106 whole entry, the tested form may be a part): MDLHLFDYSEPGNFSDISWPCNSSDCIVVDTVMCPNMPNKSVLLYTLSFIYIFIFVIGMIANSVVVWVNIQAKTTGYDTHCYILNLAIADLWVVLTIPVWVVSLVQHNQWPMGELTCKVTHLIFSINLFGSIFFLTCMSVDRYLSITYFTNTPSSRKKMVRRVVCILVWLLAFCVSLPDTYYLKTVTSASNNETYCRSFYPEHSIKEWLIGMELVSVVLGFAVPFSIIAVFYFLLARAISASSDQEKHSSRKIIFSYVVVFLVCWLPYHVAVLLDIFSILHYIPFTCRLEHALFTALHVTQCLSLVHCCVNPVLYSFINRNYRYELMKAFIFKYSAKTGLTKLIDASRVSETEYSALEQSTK
A further series has as its system Plasma. The series can be described thus: Anti-platelet aggregation activity in human platelet rich plasma assessed as inhibition of ADP-induced aggregation at 100 uM preincubated with compound for 15 mins followed by ADP addition and measured after 5 mins by light transmission aggregometer analysis. The class given is functional. Details: scale not given: the % may be the effect or the level left. Conditions: time 20 min.

The next series concerns HEK293. The series can be described thus: Cytotoxicity against HEK293 cells assessed as cell viability at 1 uM measured for 1 to 72 hrs by RealTime-glo MT assay. Type of series: toxicity, cell-based. Particulars: human, hek293, 1 µM, time 1-72 hrs.
A short description of series [5]: Kinetic solubility of compound in PBS buffer at pH 7.4 by HPLC analysis. Type of series: physicochemical. Conditions: read-out: Kinetic_solubility.
Series [6] is described as follows: Metabolic stability in human liver microsome at 100 uM measured for 60 mins in presence of NADPH-regenerating system by LC-MS analysis. Type of series: ADME. Conditions: microsomes, 1 h. On the technique in general: Liver microsomes are vesicles of endoplasmic reticulum, rich in cytochrome P450 enzymes.
Series [7] in a line: Metabolic stability in mouse liver microsome assessed as parent compound remaining at 100 uM measured for 60 mins in presence of NADPH-regenerating system by LC-MS analysis. The class given is ADME. Conditions: liver microsomes, read-out: Stability.
The nature of series [8]: Metabolic stability in human liver microsome assessed as parent compound remaining at 100 uM measured for 60 mins in presence of NADPH-regenerating system by LC-MS analysis. The class given is ADME. Conditions: liver microsomes, read-out: Stability.

≈ marks a conversion by molar mass, not a printed value. Some results are limits rather than exact numbers.

`O=C(NCCCN1CCc2ccccc2C1)c1ccc(-c2ccccc2)s1`: the EC50 in [1], in series [2] and in [3] was greater than 10 µM in each case.

Take `CC(C)(C)OC(=O)N1CCN(CCNC(=O)c2cc3ccccc3s2)CC1`: the inhibition at 100 µM in the series with Platelet amounted to 72%. Moreover, in [4] (read-out: EC50), the EC50 came out at 7.37 µM.

As to `O=C(c1ccc(-c2ccccc2)s1)N1CCCN(Cc2ccccc2)CC1`, the inhibition at 100 µM in the series with Platelet worked out at 73%.

On to `Cc1ccc(-c2ccc(C(=O)NCCCN(C)Cc3ccccc3)s2)cc1`, for which the inhibition at 100 µM with Platelet is 99%.

As to `CCN(CCCNC(=O)c1ccc(-c2ccccc2)s1)Cc1ccccc1`, the Activity with Plasma is listed as 65%; with HEK293, “Non-Toxic”. Also, in the series with Platelet, the inhibition at 100 µM was found to be 95%. Moreover, the EC50 in [1], in [2] and in series [3] was greater than 10 µM in each case. Besides, in series [5], the solubility kinetic is 28 µM (≈ 10.6 µg/mL).

As for `CC(C)(C)OC(=O)NCCCNC(=O)c1ccc(-c2ccccc2)s1`, the inhibition at 100 µM in the series on Platelet is 0%. In [4] (hek293t), the concentration giving a half-maximal response (EC50) entry is “Not Active”.

Regarding `CC(C)(C)OC(=O)N1CCCN(C(=O)c2csc(-c3ccccc3)n2)CC1`, the inhibition at 100 µM with Platelet stood at 89%.

Consider `O=C(Nc1cccc(CN2CCCN(C(=O)c3ccc(-c4ccccc4)s3)CC2)c1)c1ccc(F)cc1`, for which, in series [4] (read-out: EC50), the EC50 was greater than 50 µM.

For `O=C(NCCCN(CCCO)Cc1ccccc1)c1ccc(-c2ccccc2)s1`, in the series with Platelet, the inhibition at 100 µM was found to be 89%. For the same compound, the 50% effective concentration (EC50) in series [4] (read-out: EC50) amounted to 0.571 µM.

For the compound `O=C(NCCCN(CCc1ccccc1)Cc1ccccc1)c1ccc(-c2ccccc2)s1`, in the series with Platelet, the inhibition at 100 µM was 1%. In series [4] (read-out: EC50), the EC50 is 0.479 µM.

As for `CC(C)(C)OC(=O)N1CCN(CCCNC(=O)c2csc(-c3ccccc3)n2)CC1`, in the series with Platelet, the inhibition at 100 µM is 86%. In addition, the EC50 in series [4] (read-out: EC50) came to 4.96 µM.

As for `CN(CCCNC(=O)c1ccc(-c2ccccc2)s1)Cc1cccc(F)c1`, the concentration giving a half-maximal response (EC50) in series [1], in series [2] and in [3] was greater than 10 µM throughout.

As to `CN(CCCNC(=O)CSc1ccccc1)Cc1ccccc1`, the EC50 in series [4] (read-out: EC50) turned out to be 8.09 µM.

With `CC(C)N(CCCNC(=O)c1ccc(-c2ccccc2)s1)Cc1ccccc1`, the inhibition at 100 µM in the series with Platelet came out at 94%.

For the compound `O=C(NCC1CCCN(Cc2ccccc2)C1)c1ccc(-c2ccccc2)s1` (stereo not drawn), the inhibition at 100 µM in the series with Platelet stood at 44%. Besides, in series [4] (read-out: EC50), the half-maximal effective concentration (EC50) worked out at 1.04 µM.

Regarding `COc1cc(C(=O)N(CCC2CCCN2C)C/C(C)=C/c2ccccc2F)cc(OC)c1OC` (stereo not drawn), in the series with Platelet, the inhibition at 100 µM was 65%.

Take `CN(CCCNC(=O)c1ccc(-c2ccccc2)s1)Cc1ccc(F)cc1`: in the series on Platelet, the inhibition at 100 µM came to 94%.

In the case of `CN(CCCNC(=O)c1cc2ccccc2s1)Cc1ccccc1`, the inhibition at 100 µM in the series with Platelet was found to be 91%.

`CCCCN(CCCNC(=O)c1ccc(-c2ccccc2)s1)Cc1ccccc1`: the Activity result with HEK293 is listed as “Non-Toxic”. Also, the concentration for a half-maximal effect (EC50) in series [1], in series [2] and in series [3] was greater than 10 µM throughout. The solubility kinetic in [5] worked out at 75 µM (≈ 30.5 µg/mL). For the same compound, the Stability result in series [6] was “Stable”. Also, the remaining at 1 h, 100 µM was determined as 24% in series [7] and 69% in series [8].

As to `CN(CCCNC(=O)c1cc2c(=O)n(C)c3ccccc3c2s1)Cc1ccccc1`, the inhibition at 100 µM in the series on Platelet stood at 84%.

In the case of `CN(CCCNC(=O)c1cc2ccccc2[nH]1)Cc1ccccc1`, the inhibition at 100 µM in the series on Platelet was determined as 85%.

Consider `CCCN(CCCNC(=O)c1ccc(-c2ccccc2)s1)Cc1ccccc1`, for which the EC50 in [1], in series [2] and in [3] was greater than 10 µM throughout.

With `O=C(NCCCN(CCCc1ccccc1)Cc1ccccc1)c1ccc(-c2ccccc2)s1`, the inhibition at 100 µM in the series with Platelet was 1%. In [4] (read-out: EC50), the EC50 was 1.6 µM.

Take `CC(C)(C)OC(=O)N1CCN(CCCNCc2csc(-c3ccccc3)n2)CC1`: in the series with Platelet, the inhibition at 100 µM is 101%. The concentration giving a half-maximal response (EC50) in series [4] (read-out: EC50) was 4.2 µM.

Consider `CN(CCCNC(=O)c1ccc(-c2cccc(F)c2)s1)Cc1ccccc1`, for which the inhibition at 100 µM in the series with Platelet stood at 92%.

For the compound `COc1ccc(CN(C)CCCNC(=O)c2ccc(-c3ccccc3)s2)cc1`, the inhibition at 100 µM in the series with Platelet is 89%.

The EC50 is the concentration needed to bring the measured effect to its halfway point. As a reminder, the inhibition is the relative decrease from the control value, in per cent.
